Measurements: patent US8889667B2 (Agios Pharmaceuticals, Inc, priority 2010, dated 2014)

target: PKM2 (Homo sapiens, UniProt P14618); assay: PKM2 Assay (activation, LDH-coupled, absorbance at 340 nm); type: biochemical; details: Table 5
Outline: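 Read-out was the 340 nm NADH absorbance change at 25 °C in an LDH-coupled system (PEP 0.15 mM, NADH 180 μM, ADP 0.7 mM to initiate) in 50 mM Tris pH 7.5, 100 mM KCl, 5 mM MgCl2. PKM2 at 50 ng/well was first preincubated with compound for 30 min at 4 °C. Activation given as AC50.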

Chain of PKM2 (P14618 whole entry): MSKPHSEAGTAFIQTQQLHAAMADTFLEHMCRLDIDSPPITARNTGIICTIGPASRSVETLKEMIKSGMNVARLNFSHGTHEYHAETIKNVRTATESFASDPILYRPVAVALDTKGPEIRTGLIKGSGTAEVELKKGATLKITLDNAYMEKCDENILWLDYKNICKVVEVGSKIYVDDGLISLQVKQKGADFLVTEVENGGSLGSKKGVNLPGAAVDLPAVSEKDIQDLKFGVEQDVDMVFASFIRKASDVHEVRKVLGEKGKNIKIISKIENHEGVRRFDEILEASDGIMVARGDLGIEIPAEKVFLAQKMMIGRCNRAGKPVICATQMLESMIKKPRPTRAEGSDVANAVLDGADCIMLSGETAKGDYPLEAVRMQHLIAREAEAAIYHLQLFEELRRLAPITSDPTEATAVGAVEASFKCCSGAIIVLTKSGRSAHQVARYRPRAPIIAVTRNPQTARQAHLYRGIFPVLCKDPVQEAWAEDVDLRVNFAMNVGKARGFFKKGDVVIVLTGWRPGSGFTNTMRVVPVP

SMILES | AC50
COc1ccc(CN2CCN(C(=O)c3ccc(NS(=O)(=O)c4cccc5cccnc45)c(OC(F)(F)F)c3)CC2)cc1 [Compound 310, N-(4-(4-(4-methoxybenzyl)piperazine-1-carbonyl)-2-(trifluoromethoxy)phenyl)quinoline-8-sulfonamide] | 100 to 500 nM
O=C(O[C@@H]1CCOC1)N1CCN(C(=O)c2ccc(NS(=O)(=O)c3cccc4cccnc34)c(OC(F)(F)F)c2)CC1 [Compound 311] | 1000 to 20000 nM
O=C(OCCC1CCCC1)N1CCN(C(=O)c2ccc(NS(=O)(=O)c3cccc4cccnc34)c(OC(F)(F)F)c2)CC1 [Compound 312, 2-cyclopentylethyl-4-(4-(quinoline-8-sulfonamido)-3-(trifluoromethoxy)benzoyl)piperazine-1-carboxylate] | 500 to 1000 nM
O=C(c1ccc(NS(=O)(=O)c2cccc3cccnc23)cc1)N1CCN(C(=O)c2cnns2)CC1 [Compound 313, N-(4-(4-(1,2,3-thiadiazole-5-carbonyl)piperazine-1-carbonyl)phenyl)quinoline-8-sulfonamide] | < 100 nM
O=C(OC1CCOCC1)N1CCN(C(=O)c2ccc(NS(=O)(=O)c3cccc4cccnc34)c(OC(F)(F)F)c2)CC1 [Compound 314, tetrahydro-2H-pyran-4-yl-4-(4-(quinoline-8-sulfonamido)-3-(trifluoromethoxy)benzoyl)piperazine-1-carboxylate] | 1000 to 20000 nM
O=C(OCC1CCCO1)N1CCN(C(=O)c2ccc(NS(=O)(=O)c3cccc4cccnc34)c(OC(F)(F)F)c2)CC1 (stereo not shown) [Compound 316, (tetrahydrofuran-2-yl)methyl-4-(4-(quinoline-8-sulfonamido)-3-(trifluoromethoxy)benzoyl)piperazine-1-carboxylate] | 1000 to 20000 nM
O=C(c1ccc(NS(=O)(=O)c2cccc3cccnc23)cc1)N1CCN(C(=O)c2ccncc2F)CC1 [Compound 317, N-(4-(4-(3-fluoroisonicotinoyl)piperazine-1-carbonyl)phenyl)quinoline-8-sulfonamide] | < 100 nM
O=C(c1ccc(NS(=O)(=O)c2cccc3cccnc23)c(C(F)(F)F)c1)N1CCN(Cc2ccncc2)CC1 [Compound 328, N-(4-(4-(pyridin-4-ylmethyl)piperazine-1-carbonyl)-2-(trifluoromethyl)phenyl)quinoline-8-sulfonamide] | 1000 to 20000 nM
O=C(c1ccc(NS(=O)(=O)c2cccc3cccnc23)c(C(F)(F)F)c1)N1CCN(CC2CCCO2)CC1 (stereo not shown) [Compound 329, N-(4-(4-((tetrahydrofuran-2-yl)methyl)piperazine-1-carbonyl)-2-(trifluoromethyl)phenyl)quinoline-8-sulfonamide] | 1000 to 20000 nM
O=C(c1ccc(NS(=O)(=O)c2cccc3cccnc23)cc1)N1CCN(C2(c3ccccc3)CC2)CC1 [Compound 330, N-(4-(4-(1-phenylcyclopropyl)piperazine-1-carbonyl)phenyl)quinoline-8-sulfonamide] | < 100 nM
CC(c1cc(F)cc(F)c1)N1CCN(C(=O)c2ccc(NS(=O)(=O)c3cccc4cccnc34)cc2)CC1 (stereo not shown) [Compound 331, N-(4-(4-(1-(3,5-difluorophenyl)ethyl)piperazine-1-carbonyl)phenyl)quinoline-8-sulfonamide] | < 100 nM
CC(c1ccc(F)c(Cl)c1)N1CCN(C(=O)c2ccc(NS(=O)(=O)c3cccc4cccnc34)cc2)CC1 (stereo not shown) [Compound 332, N-(4-(4-(1-(3-chloro-4-fluorophenyl)ethyl)piperazine-1-carbonyl)phenyl)quinoline-8-sulfonamide] | < 100 nM
COc1ccc(CN2CCN(C(=O)c3ccc(NS(=O)(=O)c4cccc5cccnc45)c(OC(F)(F)F)c3)CC2)c(OC)c1 [Compound 333, N-(4-(4-(2,4-dimethoxybenzyl)piperazine-1-carbonyl)-2-(trifluoromethoxy)phenyl)quinoline-8-sulfonamide] | 500 to 1000 nM
O=C(c1ccc(NS(=O)(=O)c2cccc3cccnc23)c(OC(F)(F)F)c1)N1CCN(Cc2ccc(C(F)(F)F)cc2)CC1 [Compound 334, N-(2-(trifluoromethoxy)-4-(4-(4-(trifluoromethyl)benzyl)piperazine-1-carbonyl)phenyl)quinoline-8-sulfonamide] | 100 to 500 nM
O=C(c1ccc(NS(=O)(=O)c2cccc3cccnc23)c(OC(F)(F)F)c1)N1CCN(Cc2ccccc2F)CC1 [Compound 335, N-(4-(4-(2-fluorobenzyl)piperazine-1-carbonyl)-2-(trifluoromethoxy)phenyl)quinoline-8-sulfonamide] | 100 to 500 nM
O=C(c1ccc(NS(=O)(=O)c2cccc3cccnc23)c(OC(F)(F)F)c1)N1CCN(CC2CCCC2)CC1 [Compound 336, N-(4-(4-(cyclopentylmethyl)piperazine-1-carbonyl)-2-(trifluoromethoxy)phenyl)quinoline-8-sulfonamide] | 500 to 1000 nM
O=C(c1ccc(NS(=O)(=O)c2cccc3cccnc23)c(OC(F)(F)F)c1)N1CCN(Cc2ccc(F)cc2)CC1 [Compound 337, N-(4-(4-(4-fluorobenzyl)piperazine-1-carbonyl)-2-(trifluoromethoxy)phenyl)quinoline-8-sulfonamide] | 1000 to 20000 nM
O=C(c1ccc(NS(=O)(=O)c2cccc3cccnc23)c(OC(F)(F)F)c1)N1CCN(Cc2ccc(Cl)cc2)CC1 [Compound 338, N-(4-(4-(4-chlorobenzyl)piperazine-1-carbonyl)-2-(trifluoromethoxy)phenyl)quinoline-8-sulfonamide] | 100 to 500 nM
CC(C)(c1ccccc1)N1CCN(C(=O)c2ccc(NS(=O)(=O)c3cccc4cccnc34)c(OC(F)(F)F)c2)CC1 [Compound 340, N-(4-(4-(2-phenylpropan-2-yl)piperazine-1-carbonyl)-2-(trifluoromethoxy)phenyl)quinoline-8-sulfonamide] | 100 to 500 nM
O=C(c1ccc(NS(=O)(=O)c2cccc3cccnc23)cc1)N1CCN(Cc2ccc(F)cc2)CC1 [Compound 341, N-(4-(4-(4-fluorobenzyl)piperazine-1-carbonyl)phenyl)quinoline-8-sulfonamide] | < 100 nM
O=C(O[C@H]1CCOC1)N1CCN(C(=O)c2ccc(NS(=O)(=O)c3cccc4cccnc34)c(OC(F)(F)F)c2)CC1 [Compound 343, (S)-Tetrahydrofuran-3-yl-4-(4-(quinoline-8-sulfonamido)-3-(trifluoromethoxy)benzoyl)piperazine-1-carboxylate] | 1000 to 20000 nM
O=C(Oc1ccccn1)N1CCN(C(=O)c2ccc(NS(=O)(=O)c3cccc4cccnc34)c(OC(F)(F)F)c2)CC1 [Compound 344, Pyridin-2-yl4-(4-(quinoline-8-sulfonamido)-3-(trifluoromethoxy)benzoyl)piperazine-1-carboxylate] | 500 to 1000 nM

Further lines, results first:

AC50 | SMILES
100 to 500 nM | COc1cc(C(=O)N2CCN(C(=O)Oc3ccccn3)CC2)ccc1NS(=O)(=O)c1cccc2cccnc12 [Compound 315, Pyridin-2-yl 4-(3-methoxy-4-(quinoline-8-sulfonamido)benzoyl)piperazine-1-carboxylate]
100 to 500 nM | COc1cc(C(=O)N2CCN(C(=O)c3cccc(F)c3F)CC2)ccc1NS(=O)(=O)c1cccc2cccnc12 [Compound 318, N-(4-(4-(2,3-difluorobenzoyl)piperazine-1-carbonyl)-2-methoxyphenyl)quinoline-8-sulfonamide]
100 to 500 nM | COc1cc(C(=O)N2CCN(C(=O)c3ccc(F)c(F)c3)CC2)ccc1NS(=O)(=O)c1cccc2cccnc12 [Compound 319, N-(4-(4-(3,4-difluorobenzoyl)piperazine-1-carbonyl)-2-methoxyphenyl)quinoline-8-sulfonamide]
100 to 500 nM | COc1cc(C(=O)N2CCN(C(=O)c3cccc(OC)c3F)CC2)ccc1NS(=O)(=O)c1cccc2cccnc12 [Compound 320, N-(4-(4-(2-fluoro-3-methoxybenzoyl)piperazine-1-carbonyl)-2-methoxyphenyl)quinoline-8-sulfonamide]
100 to 500 nM | COc1cc(C(=O)N2CCN(C(=O)c3csnn3)CC2)ccc1NS(=O)(=O)c1cccc2cccnc12 [Compound 321, N-(4-(4-(1,2,3-thiadiazole-4-carbonyl)piperazine-1-carbonyl)-2-methoxyphenyl)quinoline-8-sulfonamide]
100 to 500 nM | COc1cc(C(=O)N2CCN(C(=O)c3cscn3)CC2)ccc1NS(=O)(=O)c1cccc2cccnc12 [Compound 322, N-(2-methoxy-4-(4-(thiazole-4-carbonyl)piperazine-1-carbonyl)phenyl)quinoline-8-sulfonamide]
500 to 1000 nM | O=C(c1cccnc1)N1CCN(C(=O)c2ccc(NS(=O)(=O)c3cccc4cccnc34)c(OC(F)(F)F)c2)CC1 [Compound 323, N-(4-(4-nicotinoylpiperazine-1-carbonyl)-2-(trifluoromethoxy)phenyl)quinoline-8-sulfonamide]
100 to 500 nM | O=C(c1ccc(NS(=O)(=O)c2cccc3cccnc23)c(OC(F)(F)F)c1)N1CCN(C(=O)c2cscn2)CC1 [Compound 324, N-(4-(4-(thiazole-4-carbonyl)piperazine-1-carbonyl)-2-(trifluoromethoxy)phenyl)quinoline-8-sulfonamide]
1000 to 20000 nM | Cc1cnc(C(=O)N2CCN(C(=O)c3ccc(NS(=O)(=O)c4cccc5cccnc45)c(OC(F)(F)F)c3)CC2)cn1 [Compound 325]
100 to 500 nM | O=C(c1cc(F)cc(F)c1)N1CCN(C(=O)c2ccc(NS(=O)(=O)c3cccc4cccnc34)c(OC(F)(F)F)c2)CC1 [Compound 326, N-(4-(4-(3,5-difluorobenzoyl)piperazine-1-carbonyl)-2-(trifluoromethoxy)phenyl)quinoline-8-sulfonamide]
500 to 1000 nM | O=C(c1ccc(NS(=O)(=O)c2cccc3cccnc23)c(OC(F)(F)F)c1)N1CCN(C(=O)c2cocn2)CC1 [Compound 327]
100 to 500 nM | O=C(c1ccc(NS(=O)(=O)c2cccc3cccnc23)c(OC(F)(F)F)c1)N1CCN(Cc2ccc(Cl)cc2F)CC1 [Compound 339, N-(4-(4-(4-chloro-2-fluorobenzyl)piperazine-1-carbonyl)-2-(trifluoromethoxy)phenyl)quinoline-8-sulfonamide]
